Target: T1, human OX2R (Homo sapiens, UniProt O43614)
T1 construct: expressed in transfected cells; host or cells: CHO (Chinese hamster ovary) cells, grown under G418 selection
T1 sequence (O43614 1-444): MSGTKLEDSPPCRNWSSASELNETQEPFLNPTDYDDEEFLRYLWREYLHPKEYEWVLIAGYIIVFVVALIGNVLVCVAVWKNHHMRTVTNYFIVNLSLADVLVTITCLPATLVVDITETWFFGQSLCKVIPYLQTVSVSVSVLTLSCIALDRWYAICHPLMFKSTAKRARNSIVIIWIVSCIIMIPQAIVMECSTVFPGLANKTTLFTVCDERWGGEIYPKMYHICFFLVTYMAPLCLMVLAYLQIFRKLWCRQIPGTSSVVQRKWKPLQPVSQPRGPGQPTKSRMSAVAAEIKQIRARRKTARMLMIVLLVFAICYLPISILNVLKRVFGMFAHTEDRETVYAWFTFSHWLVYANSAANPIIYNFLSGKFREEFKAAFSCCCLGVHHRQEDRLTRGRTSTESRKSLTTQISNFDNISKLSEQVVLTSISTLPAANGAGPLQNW
Assay: IP-One (IPOne) orexin receptor agonist assay in CHO cells expressing human OX2R
Type: cell-based
Conditions: for EC50: CHO cells expressing human OX2R, IP-One IP-1 detection, 2 hours incubation, four parameter logistic fit, read-out: OX2R Potency, EC50; for % of reference agonist maximal effect: human OX2R, percentage of sample raw value/mean max effect (reference compound at 1 uM with 100% activity)
Description: The utility of the compounds in accordance with the present invention as orexin receptor OX1R and/or OX2R agonists may be readily determined without undue experimentation by methodology well known in the art. Both the OX1R and/or OX2R G-coupled protein receptors (GPCRs) couple through the Gαq signaling pathway, which ultimately promotes calcium mobilization via inositol triphosphate (IP3) production. The half-life of IP-3 is relatively short, being rapidly metabolized to inositol monophosphate (IP-1), which can be readily detected using a commercially available assay kit (IP-One; Cisbio; cat #621PAPEC) coupled with a cell line expressing the target receptor(s) of interest. The utility of the compounds in accordance with the present invention as orexin receptor OX1R and/or OX2R agonists may be determined utilizing this assay.
In a typical experiment, the OX1 and OX2 receptor agonist activity is determined in accordance with the following general experimental method. Chinese hamster ovary (CHO) cells expressing human OX1R and/or the human OX2R were grown in Iscove's modified DMEM containing glutaMAX™, 1% G418, 100 U/mL penicillin, 100 μg/mL streptomycin and 10% heat-inactivated qualified fetal bovine serum (FBS). The OX2R cells were seeded at 10,000 cells/well/50 μL and the OX1R cells were seeded at 20,000 cells/well/50 μL into 384-well white tissue culture plates (Greiner; cat #781080). All cell/media reagents were from GIBCO-Invitrogen Corp. The seeded cell plate(s) were incubated at 37° C. with 5% CO2 and 85% humidity for 20-24 hours. On the day of the assay, assay-ready compound plates were prepared using an acoustic liquid handler (ECHO; Labcyte), which dispensed sufficient volume of test compound stock (10 mM in DMSO) or 100% DMSO to prepare 10 point, ½-log dilutions in a final volume of 202.5 nL/well in all test wells of a 384-well diamond plate (Labcyte). Following completion of assay-ready plates, importantly, the next three steps were performed with minimal delay: 1) 20 μl of 1× stimulation buffer was added to the compound plate using a Multidrop Combi (small cassette, Thermo Fisher Scientific cat #24073290); 2) culture medium was removed from the cell plate using the Bluewasher plate washer (gentle spin; BlueCatBio); 3) 14 μl of compound/stimulation buffer mixture was added to the cell plate using a Bravo liquid handler (Agilent) prior to incubating cell plates at 37° C. with 5% CO2 and 85% humidity for 1 or 2 hours (OX1R and OX2R, respectively). During this incubation, IP-one detection reagents were prepared (38:1:1 lysis buffer:D2:AB-cryptate reagents). Six μL of mixed detection reagents were added to the cell plate using a Multidrop Combi (small cassette, Thermo Fisher Scientific cat #24073290) and incubated 60 minutes at room temperature in the dark. Fluorescence signal was detected using an Envision plate reader (Perkin Elmer) [LANCE/DELFIA Dual Enh (Em: APC 665; Ex: Cy5 620)].
For each compound, data were fit to a four parameter logistic fit (ActivityBase software) and the EC50 was reported as the inflection point of the resulting curve. Percent effect for each test compound was determined as the percentage of sample raw value/mean max effect, where the mean max effect was derived from the mean raw value of 32 control wells per assay plate (using Orexin A (cat #003-30) at 1 μM for human OX1R and a reference compound at 1 uM with 100% activity previously established by comparison to Orexin A for human OX2R). The intrinsic orexin receptor agonist activity of a compound which may be used in the present invention may be determined by these assays.

Compound	EC50 [µM]	% of reference agonist maximal effect [%]
COC(=O)N1C[C@@H](C)C[C@H](c2ccn[nH]2)[C@@H]1CO[C@H]1CC[C@@H](c2ccccc2)CC1 (racemic) [Example 39, (+/−) methyl (2R,3S,5S)-5-methyl-2-((((CIS)-4-phenylcyclohexyl)oxy)methyl)-3-(1H-pyrazol-5-yl)piperidine-1-carboxylate]	1.98	94.8
COC(=O)N1C[C@@H](C)C[C@@H](c2ccn[nH]2)[C@@H]1CO[C@H]1CC[C@@H](c2ccccc2)CC1 (racemic) [Example 40, (+/−) methyl (2R,3R,5S)-5-methyl-2-((((CIS)-4-phenylcyclohexyl)oxy)methyl)-3-(1H-pyrazol-5-yl)piperidine-1-carboxylate]	1.63	95.8
COC(=O)N1C[C@H](C)C[C@H](c2ccn[nH]2)[C@@H]1CO[C@H]1CC[C@@H](c2ccccc2)CC1 (racemic) [Example 41, (+/−) methyl (2R,3S,5R)-5-methyl-2-((((CIS)-4-phenylcyclohexyl)oxy)methyl)-3-(1H-pyrazol-5-yl)piperidine-1-carboxylate]	2.36	95.4
COC(=O)N1CCC[C@H](c2n[nH]cc2Cl)[C@@H]1CO[C@H]1CC[C@@H](c2ccc(Cl)cc2)CC1 (racemic) [Example 48, Methyl cis-3-(4-chloro-1H-pyrazol-3-yl)-2-((((CIS)-4-(4-chlorophenyl)cyclohexyl)-oxy)methyl)piperidine-1-carboxylate]	0.922	97.6
CCNC(=O)N1CCC[C@H](c2ccn[nH]2)[C@@H]1COC1CCC(C(C)C)CC1 (relative stereo) [Example 3, (CIS)-N-ethyl-2-(((4-isopropylcyclohexyl)oxy)methyl)-3-(1H-pyrazol-5-yl)piperidine-1-carboxamide]	0.676	99.9
COC(=O)N1CCC[C@H](c2n[nH]cc2C)[C@@H]1COC1CCN(c2ncccn2)CC1 (relative stereo) [Example 6, Methyl (CIS)-3-(4-methyl-1H-pyrazol-3-yl)-2-(((1-(pyrimidin-2-yl)piperidin-4-yl)oxy)methyl)piperidine-1-carboxylate]	1.27	96.6
COC(=O)N1CCC[C@H](c2n[nH]cc2C)[C@@H]1COC1CCN(c2ncc(F)cn2)CC1 (relative stereo) [Example 7, methyl (CIS)-2-(((1-(5-fluoropyrimidin-2-yl)piperidin-4-yl)oxy)methyl)-3-(4-methyl-1H-pyrazol-3-yl)piperidine-1-carboxylate]	1.5	95.7
COC(=O)N1CCC[C@H](c2n[nH]cc2C)[C@@H]1COC1CCN(c2ccccc2)CC1 (relative stereo) [Example 8, Methyl (CIS)-3-(4-methyl-1H-pyrazol-3-yl)-2-(((1-phenylpiperidin-4-yl)oxy)methyl)piperidine-1-carboxylate]	5.84	80.9
COC(=O)N1CCC[C@H](c2cc[nH]n2)[C@@H]1CO[C@H]1CC[C@@H](c2ccccc2)CC1 (relative stereo) [Example 21, methyl (CIS)-2-((((CIS)-4-phenylcyclohexyl)oxy)methyl)-3-(1H-pyrazol-3-yl)piperidine-1-carboxylate]	2.1	79.9
CCNC(=O)N1CCC[C@H](c2ccnn2C)[C@@H]1CO[C@H]1CC[C@@H](c2ccccc2)CC1 (relative stereo) [Example 22, (CIS)-N-ethyl-3-(1-methyl-1H-pyrazol-5-yl)-2-((((CIS)-4-phenylcyclohexyl)oxy)methyl)piperidine-1-carboxamide]	6	83.7

Molecules with a lower EC50, results first:

EC50 [µM]	% of reference agonist maximal effect [%]	Compound
0.357	99.2	COC(=O)N1CCC[C@H](c2n[nH]cc2Cl)[C@@H]1CO[C@H]1CC[C@@H](c2ccccc2Cl)CC1 (racemic) [Example 47, Methyl cis-3-(4-chloro-1H-pyrazol-3-yl)-2-((((CIS)-4-(2-chlorophenyl)cyclohexyl)oxy)methyl)piperidine-1-carboxylate]
0.25	100.7	Cc1c[nH]nc1[C@H]1CCCN(C(=O)OC(C)C)[C@H]1COC1CCN(c2ncccn2)CC1 (relative stereo) [Example 9, Isopropyl (CIS)-3-(4-methyl-1H-pyrazol-3-yl)-2-(((1-(pyrimidin-2-yl)piperidin-4-yl)oxy)methyl)piperidine-1-carboxylate]
0.211	98.6	COC(=O)N1CCC[C@H](c2[nH]ncc2C)[C@@H]1CO[C@H]1CC[C@@H](c2ccccc2)CC1 (relative stereo) [Example 23, methyl (CIS)-3-(4-methyl-1H-pyrazol-5-yl)-2-((((CIS)-4-phenylcyclohexyl)oxy)methyl)piperidine-1-carboxylate]
0.126	99.9	Cc1c[nH]nc1[C@H]1CCCN(C(=O)OCC(F)F)[C@H]1CO[C@H]1CC[C@@H](c2cccc(F)c2)CC1 (relative stereo) [Example 16, 2,2-difluoroethyl (CIS)-2-((((CIS)-4-(3-fluorophenyl)cyclohexyl)oxy)methyl)-3-(4-methyl-1H-pyrazol-3-yl)piperidine-1-carboxylate]
0.117	99.3	COC(=O)N1CCC[C@H](c2n[nH]cc2C)[C@@H]1CO[C@H]1CC[C@@H](c2cccc(F)c2)CC1 (relative stereo) [Example 15, methyl (CIS)-2-((((CIS)-4-(3-fluorophenyl)cyclohexyl)oxy)methyl)-3-(4-methyl-1H-pyrazol-3-yl)piperidine-1-carboxylate]
0.0655	99.9	Cc1c[nH]nc1[C@@H]1CCCN(C(=O)C2CC2)[C@@H]1CO[C@H]1CC[C@@H](c2cccc(F)c2)CC1 (relative stereo) [Example 14]
0.0151	101.9	COC(=O)N1CCC[C@H](c2nc(O)sc2C)[C@@H]1CO[C@H]1CC[C@@H](c2ccccc2)CC1 (relative stereo) [Example 2, Methyl (CIS)-3-(2-hydroxy-5-methylthiazol-4-yl)-2-((((CIS)-4-phenylcyclohexyl)oxy)-methyl)piperidine-1-carboxylate]
0.0048	100.8	CCNC(=O)N1CCC[C@H](c2n[nH]cc2C)[C@@H]1CO[C@H]1CC[C@@H](c2cccc(F)c2)CC1 (racemic) [Example 10, (CIS)-N-ethyl-2-((((CIS)-4-(3-fluorophenyl)cyclohexyl)oxy)methyl)-3-(4-methyl-1H-pyrazol-3-yl)piperidine-1-carboxamide]
